Melting point data for twelve compounds are collected here from patent US6593337B1, “Tricyclic compounds useful as HIV reverse transcriptase inhibitors” (Bristol-Myers Squibb Pharma Company, priority 1999, dated 2003).

For the compound `CC(C)N(C)CC1(C(F)(F)F)c2cc(Cl)ccc2Nc2ncccc21` (stereo not drawn) [No. 93], the melting point (in general, the temperature of the solid-liquid transition) was in the range of 157 to 158 °C. Compound `CCN(CC)CC1(C(F)(F)F)c2cc(Cl)ccc2Nc2ncccc21` (stereo not drawn) [No. 94, 7-Chloro-5-(N,N-diethylaminomethyl)-5,10-dihydro-5-(trifluoromethyl)benzo[b][1,8]napthyridine] gave a melting point of 110 to 111 °C. The value for `Fc1ccc2c(c1)C(OCC1CC1)(C(F)F)c1cccnc1N2` (stereo not drawn) [No. 180, 7-Fluoro-5-cyclopropylmethoxy-5-difluoromethyl-5,10-dihydro-benzo[b][1,8]naphthyridine] was 137 to 138 °C; that for `FC(F)C1(OCCC2CC2)c2cc(Cl)ccc2Nc2ncccc21` (stereo not drawn) [No. 181, 7-Chloro-5-(2-cyclopropyl-ethoxy)-5-difluoromethyl-5,10-dihydro-benzo[b][1,8]naphthyridine] was 148 to 149 °C. The compound `FC(F)C1(Cc2ccccn2)c2cc(Cl)ccc2Nc2ncccc21` (stereo not drawn) [No. 182, 7-Chloro-5-pyridin-2-ylmethyl-5-difluoromethyl-5,10-dihydro-benzo[b][1,8]naphthyridine] came in with a melting point of 204 to 205 °C. The value for `[O-][n+]1cccc2c1Nc1ccc(Cl)cc1C2(OCC1CC1)C(F)F` (stereo not drawn) [No. 184, 7-Chloro-5-cyclopropylmethoxy-5-difluoromethyl-5,10-dihydro-benzo[b][1,8]naphthyridine 1-oxide] was 185 to 186 °C; that for `[O-][n+]1cccc2c1Nc1ccc(F)cc1C2(OCC1CC1)C(F)F` (stereo not drawn) [No. 185, 7-Fluoro-5-cyclopropylmethoxy-5-difluoromethyl-5,10-dihydro-benzo[b][1,8]naphthyridine 1-oxide] was 166 to 167 °C. In the case of `[O-][n+]1cccc2c1Nc1ccc(Cl)cc1C2(OCCC1CC1)C(F)F` (stereo not drawn) [No. 186, 7—Chloro-5-(2-cyclopropyl-ethoxy)-5-difluoromethyl-5,10-dihydro-benzo[b][1,8]naphthyridine 1-oxide], the melting point lay within 175 to 176 °C. The value for `[O-][n+]1cccc2c1Nc1ccc(Cl)cc1C2(Cc1ccccn1)C(F)F` (stereo not drawn) [No. 187, 7—Chloro-5-pyridin-2-ylmethyl-5-difluoromethyl-5,10-dihydro-benzo[b][1,8]naphthyridine 1-oxide] was 210 to 211 °C; that for `[O-][n+]1cc(Cl)cc2c1Nc1ccc(Cl)cc1C2(OCC1CC1)C(F)F` (stereo not drawn) [No. 188, 3,7-Dichloro-5-cyclopropylmethoxy-5-difluoromethyl-5,10-dihydro-benzo[b][1,8]naphthyridine 1-oxide] was 163 to 164 °C.

As for `[O-][n+]1cccc2c1Nc1ncc(Cl)cc1C2(OCC1CC1)C(F)(F)F` (stereo not drawn) [No. 201, 3-Chloro-10-cyclopropylmethoxy-10-trifluoromethyl-9,10-dihydro-1,8,9-triaza-anthracene 8-oxide], the melting point was 68 to 69 °C.

For the compound `CC(C)COC1(C(F)(F)F)c2cccnc2Nc2ncc(Cl)cc21` (stereo not drawn) [No. 203, 3-Chloro-10-isobutoxy-10-trifluoromethyl-9,10-dihydro-1,8,9-triaza-anthracene], the melting point lay within 166 to 167 °C.
